For data set [1] the following is noted: cited from earlier work.
The target in another data set is PAK4 (Homo sapiens, UniProt O96013). Kind of data set: Z'-LYTE FRET kinase inhibition assay. It is filed as biochemical. Set-up: purchased Invitrogen. The text has this:
[…]. […] […].

For another data set, the system named is MCF7 cells. Kind of data set: Cell proliferation, MTT assay. It counts as cell-based. The conditions noted are these: Homo sapiens, MCF7, read-out: EC50, anti-proliferative, MCF7 cells. How it is done:
(§1) Cell proliferation was assessed by MTT assay.
(§2) Cell viability was measured by MTT assay and the half maximal inhibitory concentration (IC50) was calculated using GraphPad Prism. Triplicates were performed for each sample and medium alone was used as a blank.
(§3) The anti-proliferative effects of PAK1 degradation and inhibition were evaluated.
Background: Formazan colour is commonly taken as a measure of viable cells.

The next data set concerns Hey A8 cells. Kind of data set: Cell proliferation, MTT assay. It is filed as cell-based. The conditions noted are these: HEY A8, read-out: EC50, anti-proliferative. On the procedure:
as §1, §2, §3

For a further data set, the system named is OMM1 cells. Put plainly: Cell proliferation, MTT assay. It is filed as cell-based. The conditions noted are these: OMM-1, read-out: EC50, anti-proliferative. On the procedure: as §1, §2, §3
The subject of another data set is OVCAR3 cells. Put plainly: Cell proliferation, MTT assay. It counts as cell-based. The conditions noted are these: Homo sapiens, OVCAR-3, read-out: EC50, anti-proliferative, OVCAR3 cells. How it is done: […]. Cell proliferation was assessed by MTT assay. […].
Cells were plated at 2×10^3 cells per well in 96-well plates overnight and treated with various concentrations of Pak degraders for 72 hours. Cell viability was measured by MTT assay and the half maximal inhibitory concentration (IC50) was calculated using GraphPad Prism. Triplicates were performed for each sample and medium alone was used as a blank.
The anti-proliferative effects of PAK1 degradation and inhibition were evaluated. […]. […] […]. […] […].

The conditions of data set [2]: cited from earlier work. The source holds these as a separate data set.

The source of these data is patent publication US20250312462A1, “PAK1 DEGRADERS AND METHODS OF USE THEREOF” (INSTITUTE FOR CANCER RESEARCH D/B/A THE RESEARCH INSTITUTE …, priority 2022, published 2025).

The term IC50 denotes the concentration that gives 50% inhibition. High values mean a need for much substance, low ones inhibition by little substance. Usually EC50 stands for the concentration that produces a half-maximal response.

Where two headings read alike, the source gives them in different places.

Sequence of PAK4 (O96013 whole entry): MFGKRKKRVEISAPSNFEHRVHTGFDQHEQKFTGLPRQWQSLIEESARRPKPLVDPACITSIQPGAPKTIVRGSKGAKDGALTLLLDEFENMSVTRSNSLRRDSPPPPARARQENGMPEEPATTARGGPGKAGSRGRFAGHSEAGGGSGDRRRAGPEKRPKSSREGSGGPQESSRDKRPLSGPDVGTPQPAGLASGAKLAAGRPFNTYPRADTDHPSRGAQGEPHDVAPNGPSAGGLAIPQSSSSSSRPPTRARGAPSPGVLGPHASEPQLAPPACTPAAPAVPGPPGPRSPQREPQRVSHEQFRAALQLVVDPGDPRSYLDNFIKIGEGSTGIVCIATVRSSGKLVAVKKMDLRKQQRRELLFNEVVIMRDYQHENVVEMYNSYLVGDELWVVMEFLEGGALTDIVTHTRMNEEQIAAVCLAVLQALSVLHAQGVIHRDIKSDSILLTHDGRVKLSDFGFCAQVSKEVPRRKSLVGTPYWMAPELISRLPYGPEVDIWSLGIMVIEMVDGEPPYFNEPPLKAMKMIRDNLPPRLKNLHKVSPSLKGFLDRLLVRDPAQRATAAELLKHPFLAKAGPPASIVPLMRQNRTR

On to `CC(C)NC(=O)N1CC[C@H](NC2=Nc3cc(F)ccc3N(CC(F)F)c3ccc(Cl)cc32)C1` [NVS-PAK1-1, reference compound], for which the “Half-life in rat liver microsomes” value in data set [1] is on record as “short half-life”. On PAK4, this molecule had an IC50 of over 10 µM. The EC50 in the data set with MCF7 cells (first statement of b311) came to 11.9 µM; with MCF7 cells (second listing of b311), 11.8 µM; in the data set with Hey A8 cells, 33.6 µM; with OMM1 cells, 12 µM; in the data set on OVCAR3 cells (first statement of b311), 3.68 µM; in the data set on OVCAR3 cells (second listing of b311), 8.9 µM. In addition, in data set [2], the In vivo half-life entry is “short in vivo half-life”.
